In brackets after ≈: the same amount, converted by molar mass.
Columns and labels:
Solubility = assay type: physicochemical; conditions: in dry DMSO at pH = 7.4
Experimental: (§1) Multiparameter optimization (MPO) and brain/plasma concentration at steady-state (logBB) are widely used to predict BBB permeability. […] A detailed ADME/PK (absorption, distribution, metabolism, excretion and pharmacokinetics) profiling was conducted, and the results are listed in Table . […] These values meet the standards that BBB permeability is considered high if Papp A–B is ≥ 3.0 × 10^–6 cm/s and the efflux ratio is <3.0.

CYP3A4 = CYP3A4 (Homo sapiens, UniProt P08684); test: CYP3A4 inhibition; assay type: in vitro ADME
Experimental: (§2) The inhibitory properties of 13a–13e on four cytochrome P450 isoforms (CYP1A2, CYP2C9, CYP2D6 and CYP3A4) were greater than 2 μM.

hERG channel = hERG channel (Homo sapiens, UniProt Q12809); test: hERG channel inhibition; conditions: human
CYP2C9 = CYP2C9 (Homo sapiens, UniProt P11712); test: CYP2C9 inhibition; assay type: in vitro ADME
Experimental: as §2

CYP1A2 = biological target: T1, CYP1A2 (Homo sapiens, UniProt P05177); test: CYP1A2 inhibition; assay type: in vitro ADME
T1 sequence (P05177 1-516): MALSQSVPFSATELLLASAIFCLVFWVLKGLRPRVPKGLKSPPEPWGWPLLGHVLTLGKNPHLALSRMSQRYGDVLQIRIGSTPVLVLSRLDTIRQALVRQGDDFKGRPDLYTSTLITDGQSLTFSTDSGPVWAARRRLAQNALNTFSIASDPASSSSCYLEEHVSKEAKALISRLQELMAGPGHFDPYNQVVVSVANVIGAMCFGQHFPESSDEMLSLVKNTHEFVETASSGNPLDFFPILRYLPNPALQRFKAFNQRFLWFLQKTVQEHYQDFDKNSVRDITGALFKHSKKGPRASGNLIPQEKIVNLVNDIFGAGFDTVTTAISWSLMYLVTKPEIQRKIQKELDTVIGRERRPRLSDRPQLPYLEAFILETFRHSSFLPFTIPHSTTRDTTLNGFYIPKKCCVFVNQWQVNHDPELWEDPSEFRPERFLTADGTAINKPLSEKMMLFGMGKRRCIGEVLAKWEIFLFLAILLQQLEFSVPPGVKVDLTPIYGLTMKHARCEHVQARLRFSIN
Experimental: as §2

GSK-3 [1] = test: Radioligand saturation binding assay with tritiated ligands in hippocampal membranes; set-up: species or system Sprague–Dawley rat; conditions: tritiated ligand, hippocampus of SD rat brains
Experimental: The pharmacology and physicochemical properties of compounds 13a–13e are depicted in Table . To evaluate binding affinities, saturation binding assays using tritiated ligands [^3H]13a, [^3H]13c, [^3H]13d, [^3H]13e (Scheme S1) were performed using the hippocampal tissue of Sprague–Dawley (SD) rat brains. As depicted in Table A, total binding (TB), nonspecific binding (NSB), and specific binding (SB) of the respective tritiated ligands were measured with increasing concentrations of the radioligands. The dissociation constant (Kd) and capacity (B max) of each radioligand were calculated to confirm their binding affinity.
For membrane preparation, hippocampal tissue from adult rats (Sprague–Dawley) was dissected out, weighed, and frozen in 0.32 M sucrose at −70 °C. On the experiment day, the tissue was thawed, homogenized in 50 mM Tris, 5 mM EDTA (pH 7.4) and then centrifuged at 48 000 xg for 15 min at +4 °C. The pellet was diluted in binding buffer (50 mM Tris, 4 mM MgCl2, 1 mM EDTA pH 7.4) to a final concentration of 2.5 mg w.w./mL. Saturation binding experiments were performed in duplicate, with each tube containing 1 mg w.w. in 0.5 mL binding buffer and 0.1 – 17 nM (11–12 concentrations) of radioligand. Nonspecific binding was measured by adding 10 μM AR-A014418. The assays were incubated for 2–3 h at room temperature and terminated by quick filtration using Whatman GF/B filters pretreated with 0.3% polyethylenimine on a Brandel cell harvester. Radioactivity was measured with a Packard Tri-Carb 2900TR liquid scintillation counter, and data were processed by nonlinear regression analyses using PRISM 4.03.

human recombinant GSK3β = human recombinant GSK3β (Homo sapiens, UniProt P49841); test: GSK3β scintillation proximity assay (SPA), inhibition of kinase activity; assay type: biochemical; conditions: for Ki: GSK-3β, calculated via the Cheng-Prusoff equation; for IC50: SPA, 1 μM ATP
Experimental: The inhibition of GSK3β activity is assessed using a scintillation proximity assay (SPA) in a 96-well microtiter plate format. The assay utilizes purified human recombinant GSK3β enzyme (∼1 nM active), [γ-^33P]-ATP (0.04 μCi), and a biotinylated peptide substrate (Biotin-[…](PO3H2)-PQL) at a final concentration of 2 μM. Reactions are carried out in an assay buffer containing MOPS, EDTA, β-mercaptoethanol, Brij 35, glycerol, and BSA, and preincubated for 10–15 min at room temperature. Inhibitor testing is conducted in duplicate using 10 different concentrations. The kinase reaction is initiated by adding ATP (1 μM final) in the presence of 50 mM Mg(Ac)2. After a 15 min incubation at room temperature, the reaction is terminated by adding a solution (25 μL) containing 5 mM EDTA, 50 μM ATP, 0.1% Triton X-100, and 10 mg/mL streptavidin-coated SPA beads, followed by the addition of distilled water (50 μL). After a 6-h incubation, bound radioactivity is measured using a MicroBeta Trilux liquid scintillation counter (1450 MicroBeta Trilux, Wallac). Data are analyzed using nonlinear regression with variable slope (GraphPad Prism or Excel Fit), and results are reported as Ki values calculated via the Cheng-Prusoff equation.

[2] = Intrinsic clearance (CLint); assay type: in vitro ADME; conditions: cells (cell type not named); read-out: median CLint
CYP2D6 = CYP2D6 (Homo sapiens, UniProt P10635); test: CYP2D6 inhibition; assay type: in vitro ADME
Experimental: as §2

[3] = Unbound fraction in brain (fu brain); assay type: in vitro ADME
Experimental: as §1

[4] = Apparent permeability (Papp A-B) and efflux ratio; assay type: in vitro ADME; conditions: for efflux ratio: not told, Papp B–A/Papp A–B
Experimental: as §1

Protein binding (% free) = assay type: in vitro ADME; conditions: read-out: mean Prot binding (% free)
[5] = Pharmacokinetics: half-life and bioavailability; conditions: in vivo; for half-life: read-out: mean t 1/2 (converted)
GSK-3β = test: In vitro autoradiography on rat brain tissue sections; assay type: binding; conditions: for blocking of [^3H]13a–13e binding in autoradiography: co-incubation, blocker 3 μM
Experimental: In the next step, we performed in vitro autoradiography studies on rat brain tissue sections to investigate the binding selectivity and distribution of compounds [^3H]13a–13e (Figure ). […] These findings support the potential of this compound series for further development as GSK-3β-targeted neuroimaging probes.
In vitro autoradiography was conducted on 10 μm thick cry-cut tissue sections of rat tissue that had been thaw-mounted onto microscope slides. The brain sections were incubated in 50 mM Tris-HCl buffer at room temperature and then incubated with [^3H]-ligand for 30 min. The sections were rinsed three times for 10 min each in Tris buffer at 1 °C, followed by a quick rinse in deionized water at 1 °C, and then air-dried at room temperature with a fan. The radiolabeled sections and Amersham plastic tritium standards were then exposed to phosphoimager plates (Fuji BAS-TR2040) overnight. Blocking studies were conducted using a 1000-fold excess of the cold reference compounds, and validated GSK-3β inhibitors AR-A014418 and SB-216763. […] This micromolar concentration is consistent with established methods for GSK-3 radioligand autoradiography blocking experiments.

GSK-3 [6] = conditions: earlier reports, rodents and/or NHPs; cited from earlier work
GSK-3 [7] = conditions: literature value for earlier GSK-3 PET ligand; cited from earlier work

Chain of CYP3A4 (P08684 whole entry, species assumed, canonical isoform): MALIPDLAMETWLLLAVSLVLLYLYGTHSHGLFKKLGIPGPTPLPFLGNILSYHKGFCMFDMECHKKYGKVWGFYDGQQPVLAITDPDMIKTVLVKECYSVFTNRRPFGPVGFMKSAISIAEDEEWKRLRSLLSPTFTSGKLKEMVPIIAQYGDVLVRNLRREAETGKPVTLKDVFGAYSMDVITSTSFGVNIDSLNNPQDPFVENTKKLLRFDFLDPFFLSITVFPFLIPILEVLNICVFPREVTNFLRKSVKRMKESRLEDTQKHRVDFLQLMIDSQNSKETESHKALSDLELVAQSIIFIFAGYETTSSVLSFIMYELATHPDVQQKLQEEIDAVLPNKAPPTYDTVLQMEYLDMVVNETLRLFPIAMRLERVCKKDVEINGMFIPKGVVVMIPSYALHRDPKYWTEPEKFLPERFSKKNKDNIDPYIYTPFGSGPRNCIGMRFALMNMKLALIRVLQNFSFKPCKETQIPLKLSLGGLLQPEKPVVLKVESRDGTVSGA
Chain of CYP2D6 (P10635 whole entry, species assumed): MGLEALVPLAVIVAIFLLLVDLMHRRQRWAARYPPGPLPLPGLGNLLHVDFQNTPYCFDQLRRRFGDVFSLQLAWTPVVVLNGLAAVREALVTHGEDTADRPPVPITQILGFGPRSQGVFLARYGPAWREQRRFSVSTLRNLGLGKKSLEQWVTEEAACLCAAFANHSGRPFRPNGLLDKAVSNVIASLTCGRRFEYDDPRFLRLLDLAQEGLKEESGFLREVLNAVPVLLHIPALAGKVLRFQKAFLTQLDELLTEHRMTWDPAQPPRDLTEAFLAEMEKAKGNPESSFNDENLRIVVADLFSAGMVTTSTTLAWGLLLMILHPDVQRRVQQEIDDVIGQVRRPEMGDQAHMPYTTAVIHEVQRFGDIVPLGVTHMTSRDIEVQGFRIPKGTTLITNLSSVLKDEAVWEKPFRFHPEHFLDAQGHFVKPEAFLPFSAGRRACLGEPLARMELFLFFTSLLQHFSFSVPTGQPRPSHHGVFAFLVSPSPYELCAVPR
Chain of human recombinant GSK3β (P49841 whole entry): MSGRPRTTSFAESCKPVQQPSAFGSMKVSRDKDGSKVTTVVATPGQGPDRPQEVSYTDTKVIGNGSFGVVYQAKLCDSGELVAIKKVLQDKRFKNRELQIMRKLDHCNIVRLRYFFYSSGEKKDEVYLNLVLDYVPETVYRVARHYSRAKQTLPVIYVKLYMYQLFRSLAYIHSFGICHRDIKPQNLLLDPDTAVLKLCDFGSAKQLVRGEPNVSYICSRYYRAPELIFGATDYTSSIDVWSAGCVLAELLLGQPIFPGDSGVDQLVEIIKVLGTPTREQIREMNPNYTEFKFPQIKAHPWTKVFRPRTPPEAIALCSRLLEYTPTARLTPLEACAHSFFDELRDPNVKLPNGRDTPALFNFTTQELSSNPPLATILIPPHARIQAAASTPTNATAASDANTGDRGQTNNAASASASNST
Chain of hERG channel (Q12809 whole entry): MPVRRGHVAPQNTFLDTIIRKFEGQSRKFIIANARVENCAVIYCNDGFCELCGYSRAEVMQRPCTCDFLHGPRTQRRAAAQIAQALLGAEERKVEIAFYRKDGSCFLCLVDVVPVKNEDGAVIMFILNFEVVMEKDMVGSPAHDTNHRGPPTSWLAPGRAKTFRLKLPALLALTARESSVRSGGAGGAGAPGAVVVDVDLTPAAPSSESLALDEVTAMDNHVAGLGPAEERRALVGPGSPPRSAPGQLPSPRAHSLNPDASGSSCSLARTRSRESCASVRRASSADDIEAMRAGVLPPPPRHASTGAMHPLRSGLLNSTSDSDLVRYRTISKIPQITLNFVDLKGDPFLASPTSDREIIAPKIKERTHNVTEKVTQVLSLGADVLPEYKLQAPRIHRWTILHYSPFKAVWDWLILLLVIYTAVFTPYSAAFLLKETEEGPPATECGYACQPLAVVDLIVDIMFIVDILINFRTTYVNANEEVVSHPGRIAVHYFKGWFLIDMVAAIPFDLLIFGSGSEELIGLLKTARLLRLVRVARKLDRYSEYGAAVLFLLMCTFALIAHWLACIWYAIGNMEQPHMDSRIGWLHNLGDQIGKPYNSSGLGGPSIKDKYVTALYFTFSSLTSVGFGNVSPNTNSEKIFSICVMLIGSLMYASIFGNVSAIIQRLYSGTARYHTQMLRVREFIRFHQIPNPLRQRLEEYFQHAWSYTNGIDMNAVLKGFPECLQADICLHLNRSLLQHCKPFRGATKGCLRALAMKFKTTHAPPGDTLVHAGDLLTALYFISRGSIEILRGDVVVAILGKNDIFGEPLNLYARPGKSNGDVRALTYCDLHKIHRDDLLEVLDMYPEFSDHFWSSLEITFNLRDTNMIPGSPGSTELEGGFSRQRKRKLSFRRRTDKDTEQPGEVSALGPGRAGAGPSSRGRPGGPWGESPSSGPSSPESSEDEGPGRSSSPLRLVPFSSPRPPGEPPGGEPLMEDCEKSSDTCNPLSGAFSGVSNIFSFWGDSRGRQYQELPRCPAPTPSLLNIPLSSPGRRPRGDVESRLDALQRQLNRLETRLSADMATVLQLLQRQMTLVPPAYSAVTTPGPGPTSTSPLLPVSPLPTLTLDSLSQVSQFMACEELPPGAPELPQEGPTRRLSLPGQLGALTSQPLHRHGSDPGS
Chain of CYP2C9 (P11712 whole entry, species assumed): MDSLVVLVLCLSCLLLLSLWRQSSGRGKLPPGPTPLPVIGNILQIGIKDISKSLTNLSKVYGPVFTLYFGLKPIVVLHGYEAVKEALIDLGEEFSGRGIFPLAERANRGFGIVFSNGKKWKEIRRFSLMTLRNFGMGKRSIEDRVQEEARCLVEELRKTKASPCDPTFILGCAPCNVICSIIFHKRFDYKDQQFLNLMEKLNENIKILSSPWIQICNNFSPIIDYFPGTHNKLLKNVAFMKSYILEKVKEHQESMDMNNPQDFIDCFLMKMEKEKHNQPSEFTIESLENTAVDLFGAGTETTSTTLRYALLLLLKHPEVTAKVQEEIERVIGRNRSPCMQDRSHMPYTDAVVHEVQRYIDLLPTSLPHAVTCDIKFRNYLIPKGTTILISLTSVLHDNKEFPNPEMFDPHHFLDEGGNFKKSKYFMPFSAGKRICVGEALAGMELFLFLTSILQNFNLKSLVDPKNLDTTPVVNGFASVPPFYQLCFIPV

Cc1ncc(-c2nc(Nc3ccc(C(=O)N4CCCCC4)c(Cl)c3)ncc2F)n1C1CCOCC1 [13a]
solubility (Solubility): 234 µM (≈ 117 µg/mL) | IC50 (CYP3A4): > 2000 nM | IC50 (hERG channel): 4520 nM | IC50 (CYP2C9): > 2000 nM | IC50 (CYP1A2): > 2000 nM | Kd (GSK-3 [1]): 1.09 nM | Ki (human recombinant GSK3β): 2.49 nM | IC50 (human recombinant GSK3β): 3.31 nM | hepatocyte CLint [2]: 34.2 µL/min/1e6 cells | IC50 (CYP2D6): > 2000 nM | fraction unbound [3]: 0.036

Cc1ncc(-c2nc(Nc3ccc(C(=O)N(C)C)c(Cl)c3)ncc2F)n1C1CCOCC1 [13b]
solubility (Solubility): 155 µM (≈ 71.1 µg/mL) | IC50 (CYP3A4): > 2000 nM | P app A-B [4]: 22.7 × 10^–6 cm/s | efflux ratio [4]: 1.2 | fraction unbound (Protein binding (% free)): 0.056 | IC50 (hERG channel): 18800 nM | IC50 (CYP2C9): > 2000 nM | IC50 (CYP1A2): > 2000 nM | Ki (human recombinant GSK3β): 3.01 nM | IC50 (human recombinant GSK3β): 4.01 nM | bioavailability [5]: 39.8% | half-life [5]: 2.32 h | hepatocyte CLint [2]: 17.5 µL/min/1e6 cells | IC50 (CYP2D6): > 2000 nM | fraction unbound [3]: 0.13

Cc1cc(Nc2ncc(F)c(-c3cnc(C)n3C3CCOCC3)n2)ccc1C(=O)N(C)C [13c]
solubility (Solubility): > 400 µM | P app A-B [4]: 16.2 × 10^–6 cm/s | efflux ratio [4]: 2.1 | Kd (GSK-3 [1]): 2.74 nM | Ki (human recombinant GSK3β): 4.48 nM | IC50 (human recombinant GSK3β): 5.96 nM | fraction unbound [3]: 0.19

COCCN(C)C(=O)c1ccc(Nc2ncc(F)c(-c3cnc(C)n3C3CCOCC3)n2)cc1C [13d]
IC50 (CYP3A4): > 2000 nM | P app A-B [4]: 21.9 × 10^–6 cm/s | efflux ratio [4]: 0.7 | fraction unbound (Protein binding (% free)): 0.11 | IC50 (hERG channel): > 33000 nM | IC50 (CYP2C9): > 2000 nM | IC50 (CYP1A2): > 2000 nM | radioactive accumulation / distribution in autoradiography (GSK-3β; tritiated ligand, rat brain sections, baseline): lowest level of radioactive accumulation | Kd (GSK-3 [1]): 6.46 nM | Ki (human recombinant GSK3β): 4.95 nM | IC50 (human recombinant GSK3β): 6.61 nM | bioavailability [5]: 32.9% | half-life [5]: 3.65 h | hepatocyte CLint [2]: 15.4 µL/min/1e6 cells | IC50 (CYP2D6): > 2000 nM | fraction unbound [3]: 0.26

[11CH3]Oc1ccc(CNC(=O)Nc2ncc([N+](=O)[O-])s2)cc1 [[^11C]1, N-(4-methoxybenzyl)-N′-(5-nitro-1,3-thiazol-2-yl)urea]
brain uptake / BBB penetration in PET studies (GSK-3 [6]): […] | Ki (GSK-3 [7]): […] | blocking of [^3H]13a–13e binding in autoradiography (GSK-3β): significantly reduced the radioactive signal in all the brain regions

[11CH3]N1CCN(S(=O)(=O)c2ccc(-c3cnc(N)c(C(=O)Nc4cccnc4)n3)cc2)CC1 [[^11C]2]
brain uptake / BBB penetration in PET studies (GSK-3 [6]): poor brain uptake in rodents and nonhuman primates

Cc1nnc(-c2ccc3occ(-c4ccc(S[11CH3])cc4)c3c2)o1 [[^11C]3]
IC50 (GSK-3 [7]): 66 nM

Cc1nnc(-c2ccc3occ(-c4ccc([S+]([11CH3])[O-])cc4)c3c2)o1 (centres unmarked) [[^11C]4]
IC50 (GSK-3 [7]): 35 nM

Cc1nnc(-c2ccc3occ(-c4ccc(S([11CH3])(=O)=O)cc4)c3c2)o1 [[^11C]5]
IC50 (GSK-3 [7]): 42 nM

Cn1cc(C2=C(c3ccc(Cl)cc3Cl)C(=O)NC2=O)c2ccccc21 [[^11C]6, reference compound]
brain uptake / BBB penetration in PET studies (GSK-3 [6]): first GSK-3 radioligand reported to penetrate the BBB in rodents and NHPs | blocking of [^3H]13a–13e binding in autoradiography (GSK-3β): significantly reduced the radioactive signal in all the brain regions

[11CH3]Oc1ccc(-c2ocnc2C(=O)NCCCn2cncn2)cc1Cl [[^11C]8]
brain uptake / BBB penetration in PET studies (GSK-3 [6]): promising brain uptake and binding specificity in NHPs | IC50 (GSK-3 [7]): 2.1 nM

[11CH3]Oc1ccc2c(NC(=O)Nc3cccc(C(F)(F)F)c3)ccnc2c1 [[^11C]9]
Ki (GSK-3 [7]): 0.6 nM

CCn1cc(C2=C(c3cccc(OCC[18F])c3)C(=O)NC2=O)c2cc(F)ccc21 [[^18F]7]
IC50 (GSK-3 [7]): 1.7 nM

From paper PMC12260939, “Radiosynthesis and Evaluation of ^11C‑Labeled Imidazolyl Pyrimidine Derivatives for Positron Emission Tomography Imaging of Glycogen Synthase Kinase‑3” (ACS Pharmacology & Translational Science, 2025)
